Test results: ChEMBL document CHEMBL4825684, “Design, synthesis and biological evaluation of N-anthraniloyl tryptamine derivatives as pleiotropic molecules for the therapy of malignant glioma” (Eur J Med Chem, 2021)
Activity calls are given as the source filed them. No cut-off for these calls is given here.

Legend:
C6 [1] = assay: Antitumor activity against rat C6 cells inoculated orthotopic Sprague-Dawley rat model assessed as inhibition of angiogenesis brain tissue at 50 mg/kg, ip twice a day administered for 13 days of tumor implantation; format: functional, organism-based; details: time 13.0 day
U-87 MG [2] = assay: Induction of apoptosis in human U-87 MG cells assessed as late apoptotic cells at 8 uM incubated for 48 hrs by […] double staining based flow cytometry assay (reference value: 0.61%); format: functional, U-87MG ATCC
U-251 [3] = assay: Induction of apoptosis in human U-251 cells assessed as necrotic cells at 4 uM incubated for 48 hrs by […] double staining based flow cytometry assay (reference value: 1.32%); format: functional
U-87 MG [4] = assay: Induction of apoptosis in human U-87 MG cells assessed as early apoptotic cells at 4 uM incubated for 48 hrs by […] double staining based flow cytometry assay (reference value: 0.63%); format: functional, U-87MG ATCC
C6 [5] = assay: Antitumor activity against rat C6 cells inoculated orthotopic Sprague-Dawley rat model assessed as reduction tumor weight at 50 mg/kg, ip twice a day treated 3 days after tumor cell injection measured for 13 days after tumor implantation; format: functional, organism-based; details: time 3.0 day
U-251 [6] = assay: Antimigratory activity against human U-251 cells assessed as inhibition of migration incubated for 24 hrs by matrigel trans well plate assay; format: functional, cell-based; details: dose 1-4 µM
U-87 MG [7] = assay: Induction of apoptosis in human U-87 MG cells assessed as early apoptotic cells at 8 uM incubated for 48 hrs by […] double staining based flow cytometry assay (reference value: 0.63%); format: functional, U-87MG ATCC
U-87 MG [8] = assay: Anti-invasion activity against human U-87 MG cells assessed as inhibition of invasion incubated for 24 hrs by matrigel trans well plate assay; format: functional, cell-based; details: U-87MG ATCC
U-251 [9] = assay: Cell cycle arrest in human U-251 cells assessed as accumulation at G2/M phase at 8 uM incubated for 48 hrs by PI staining based flow cytometry assay (reference value: 11.9%); format: functional
[10] = Plasma concentration in Sprague-Dawley rat at 60 mg/kg, ip measured up to 24 hrs by LC-MS analysis; format: ADME, organism-based
[11] = target: Signal transducer and activator of transcription 3 (Homo sapiens) (UniProt P40763); assay: Inhibition of STAT3 nuclear translocation in human U-87 MG cells incubated for 24 hrs by Hoechst staining based fluorescence confocal imaging analysis; format: cell-based
Chain of Signal transducer and activator of transcription 3 (Homo sapiens) (P40763 whole entry): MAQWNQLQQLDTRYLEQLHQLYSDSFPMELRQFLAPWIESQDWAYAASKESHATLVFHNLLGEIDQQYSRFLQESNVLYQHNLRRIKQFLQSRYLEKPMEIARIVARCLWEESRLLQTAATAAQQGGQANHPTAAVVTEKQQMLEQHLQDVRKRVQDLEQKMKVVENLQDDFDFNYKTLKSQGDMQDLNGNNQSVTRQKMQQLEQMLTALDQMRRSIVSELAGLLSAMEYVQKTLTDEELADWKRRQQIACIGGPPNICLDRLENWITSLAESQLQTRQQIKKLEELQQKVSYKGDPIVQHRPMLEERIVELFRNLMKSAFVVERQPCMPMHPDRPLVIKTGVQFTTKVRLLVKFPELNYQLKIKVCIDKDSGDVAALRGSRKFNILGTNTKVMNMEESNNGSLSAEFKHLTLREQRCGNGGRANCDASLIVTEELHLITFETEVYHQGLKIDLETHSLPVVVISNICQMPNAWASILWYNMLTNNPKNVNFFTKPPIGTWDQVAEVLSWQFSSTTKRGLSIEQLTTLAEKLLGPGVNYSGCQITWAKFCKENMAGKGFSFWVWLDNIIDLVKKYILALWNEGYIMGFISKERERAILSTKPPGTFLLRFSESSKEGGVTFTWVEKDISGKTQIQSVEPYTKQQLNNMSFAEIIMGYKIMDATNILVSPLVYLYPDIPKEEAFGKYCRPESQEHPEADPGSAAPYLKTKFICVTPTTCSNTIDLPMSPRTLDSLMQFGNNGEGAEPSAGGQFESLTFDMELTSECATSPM

U-87 MG [12] = assay: Cell cycle arrest in human U-87 MG cells assessed as accumulation at G2/M phase at 8 uM incubated for 48 hrs by PI staining based flow cytometry assay (reference value: 8%); format: functional, U-87MG ATCC
C6 [13] = assay: Antitumor activity against rat C6 cells inoculated orthotopic Sprague-Dawley rat model assessed as decrease in p-STAT3 in tumor tissue at 50 mg/kg, ip twice a day treated 3 days after tumor cell injection measured for 13 days after tumor implantation by Western blot analysis; format: functional, organism-based; details: time 3.0 day
[14] = Plasma concentration in Sprague-Dawley rat at 60 mg/kg, ip measured after 2 hrs by LC-MS analysis; format: ADME, organism-based
C6 [15] = assay: Antitumor activity against rat C6 cells inoculated orthotopic Sprague-Dawley rat model assessed as decrease in PGE2 in tumor tissue at 50 mg/kg, ip twice a day treated 3 days after tumor cell injection measured for 13 days after tumor implantation […]; format: functional, organism-based; details: time 3.0 day
C6 [16] = assay: Antitumor activity against rat C6 cells inoculated orthotopic Sprague-Dawley rat model assessed as tumor growth inhibition at 50 mg/kg, ip twice a day treated 3 days after tumor cell injection measured for 13 days after tumor implantation; format: functional; details: 72 h, time 3 day, read-out: TGI
U-251 [17] = assay: Antiproliferative activity against human U-251 cells assessed as colony formation ratio at 4 uM measured after 24 hrs by plate clone formation assay relative to control; format: functional
U-251 [18] = assay: Induction of apoptosis in human U-251 cells assessed as increase in ROS generation at 1 to 4 uM incubated for 48 hrs […] relative to control; format: functional, cell-based; details: dose 1-4 µM
[19] = Toxicity in rat C6 cells inoculated orthotopic Sprague-Dawley rat model at 50 mg/kg, ip twice a day administered for 25 days; format: organism-based; details: in vivo, 600 h, time 25 day
BV-2 = assay: Inhibition of MMP9 production in mouse BV-2 cells co-cultured with rat C6 glioma cells at 2 uM incubated for 24 hrs by Western blot analysis; format: functional, cell-based
U-251 [20] = assay: Antiproliferative activity against human U-251 cells assessed as growth inhibition incubated for 72 hrs by CCK-8 assay; format: functional, cell-based; details: U-251, 72 h
U-87 MG [21] = assay: Antiproliferative activity against human U-87 MG cells assessed as colony formation ratio at 4 uM measured after 24 hrs by plate clone formation assay relative to control; format: functional, U-87MG ATCC
C6 [22] = assay: Antitumor activity against rat C6 cells inoculated orthotopic Sprague-Dawley rat model assessed as increase in rat survival at 50 mg/kg, ip twice a day administered for 25 days (reference value: 16%); format: functional; details: time 25 day
[23] = Acute toxicity in Kunming mouse assessed mortality at 1000 mg/kg, ip measured for 14 days; format: organism-based; details: in vivo, 336 h, time 14 day
C6 [24] = assay: Antitumor activity against rat C6 cells inoculated orthotopic Sprague-Dawley rat model assessed as increase in E-cadherin in tumor tissue at 50 mg/kg, ip twice a day treated 3 days after tumor cell injection measured for 13 days after tumor implantation by Western blot analysis; format: functional, organism-based; details: time 3.0 day
[25] = Toxicity in rat C6 cells inoculated orthotopic Sprague-Dawley rat model assessed as autonomic movement at 50 mg/kg, ip twice a day administered for 13 days of tumor implantation by open field test; format: organism-based; details: in vivo, 312 h, time 13 day
[26] = Drug uptake in Sprague-Dawley rat cerebrospinal fluid at 60 mg/kg, ip measured after 2 hrs by LC-MS analysis; format: ADME, organism-based; details: read-out: Drug uptake
U-87 MG [27] = assay: Antimigratory activity against human U-87 MG cells assessed as inhibition of migration incubated for 24 hrs by matrigel trans well plate assay; format: functional, cell-based; details: U-87MG ATCC
U-251 [28] = assay: Anti-invasion activity against human U-251 cells assessed as inhibition of invasion incubated for 24 hrs by matrigel trans well plate assay; format: functional, cell-based; details: dose 1-4 µM
[29] = target: Signal transducer and activator of transcription 3 (Homo sapiens) (UniProt P40763); assay: Inhibition STAT3 phosphorylation in human U-251 cells incubated up to 8 hrs by Western blot analysis; format: cell-based; details: time hrs <=8
U-87 MG [30] = assay: Induction of apoptosis in human U-87 MG cells assessed as increase in cytochrome c release at 1 to 4 uM incubated for 48 hrs by Western blot analysis relative to control; format: functional, cell-based; details: U-87MG ATCC, dose 1-4 µM
[31] = Half life in Sprague-Dawley rat at 60 mg/kg, ip measured up to 24 hrs by LC-MS analysis; format: ADME, organism-based; details: in vivo
C6 [32] = assay: Antitumor activity against rat C6 cells inoculated orthotopic Sprague-Dawley rat model assessed as suppression of glioma cells to invade the surrounding brain tissue at 50 mg/kg, ip twice a day administered for 13 days of tumor implantation by hematoxylin-eosin staining analysis; format: functional, organism-based; details: time 13.0 day
[33] = AUC (0 to t) in Sprague-Dawley rat at 60 mg/kg, ip measured up to 24 hrs by LC-MS analysis; format: ADME, organism-based; set-up: route intraperitoneal, dose 60 mg/kg, time <=24; details: in vivo
U-87 MG [34] = assay: Induction of apoptosis in human U-87 MG cells assessed as increase in ROS generation at 1 to 4 uM incubated for 48 hrs by Western blot analysis relative to control; format: functional, cell-based; details: U-87MG ATCC, dose 1-4 µM
U-251 [35] = assay: Induction of apoptosis in human U-251 cells assessed as viable cells at 2 uM incubated for 48 hrs by […] double staining based flow cytometry assay (reference value: 96.6%); format: functional; details: read-out: Activity

In the case of `COc1cc(Nc2ccccc2C(=O)NCCc2c[nH]c3ccccc23)cc(OC)c1OC`, the Activity (C6 [1]) is reported as “Active”, the Activity (U-87 MG [2]) is reported as 7.44% and the Activity (U-251 [3]) is reported as 4.78%. For the same compound, the Activity (U-87 MG [4]) was 6.09%, the Activity (C6 [5]) was “Active” and the Activity (U-251 [6]) was “Active”. For the same compound, the Activity (U-87 MG [7]) was 13.8%, the Activity (U-87 MG [8]) was “Active” and the Activity (U-251 [9]) was 63.7%. The concentration at 24 h [10] was 200 ng/mL, the inhibition [11] was “Active” and the Activity (U-87 MG [12]) was 68.2%. For the same compound, the Activity (C6 [13]) was “Active”, the concentration at 2 h [14] was 520 ng/mL and the Activity (C6 [15]) was “Active”. The inhibition in vivo at 50 mg/kg (C6 [16]) was 66%, the Activity (U-251 [17]) was 5.33% and the Activity (U-251 [18]) was “Active”. For the same compound, the Activity [19] was “Non-Toxic”, the inhibition (BV-2) was “Active” and the IC50 (U-251 [20]) was 1870 nM. For the same compound, the Activity (U-87 MG [21]) was 0%, the Activity (C6 [22]) was 66% and the Activity [23] was “Non-Toxic”. For the same compound, the Activity (C6 [24]) was “Active”, the Activity [25] was “Non-Toxic” and the concentration at 2 h [26] was 200 ng/mL. The Activity (U-87 MG [27]) was “Active”, the Activity (U-251 [28]) was “Active” and the inhibition [29] was “Active”. The Activity (U-87 MG [30]) was “Active”, the half-life [31] was 686 min and the Activity (C6 [32]) was “Active”. The AUC(0-t) at 24 h [33] was 7330 ng·h/mL, the Activity (U-87 MG [34]) was “Active” and the viability at 2 µM (U-251 [35]) was 73.4%.
